Source: US8642587B2, “Heterocyclic compounds, pharmaceutical compositions containing them, and their use in therapy” (AbbVie Deutschland GmbH & Co. KG, priority 2009, dated 2014)
pKi: −log10 of the molar value. Counter-ions that a name gives are not always drawn.

Target: T1, human GlyT1c transporter (Homo sapiens, UniProt P48067)
T1 construct: expressed in transfected cells; host or cells: CHO cells (recombinant; membranes)
T1 sequence (P48067 1-706): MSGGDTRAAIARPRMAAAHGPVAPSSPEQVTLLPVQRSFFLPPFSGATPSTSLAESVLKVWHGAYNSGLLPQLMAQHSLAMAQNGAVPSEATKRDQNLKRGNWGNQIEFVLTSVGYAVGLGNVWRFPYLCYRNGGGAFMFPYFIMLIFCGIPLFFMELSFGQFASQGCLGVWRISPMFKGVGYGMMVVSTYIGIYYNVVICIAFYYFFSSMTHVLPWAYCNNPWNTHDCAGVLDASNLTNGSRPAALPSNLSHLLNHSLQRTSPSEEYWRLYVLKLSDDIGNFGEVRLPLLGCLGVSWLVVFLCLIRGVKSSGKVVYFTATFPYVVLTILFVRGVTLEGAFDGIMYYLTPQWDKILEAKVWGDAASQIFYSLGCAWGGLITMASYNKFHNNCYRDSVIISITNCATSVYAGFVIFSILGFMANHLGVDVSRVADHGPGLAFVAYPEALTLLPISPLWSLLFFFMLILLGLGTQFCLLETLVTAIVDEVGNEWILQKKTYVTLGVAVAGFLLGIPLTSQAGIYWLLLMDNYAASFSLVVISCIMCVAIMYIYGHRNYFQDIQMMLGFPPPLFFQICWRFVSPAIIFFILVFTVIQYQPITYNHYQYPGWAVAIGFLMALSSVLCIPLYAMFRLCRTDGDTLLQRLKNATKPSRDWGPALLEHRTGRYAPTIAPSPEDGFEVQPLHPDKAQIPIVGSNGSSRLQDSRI
Assay: Radioligand binding assay using recombinant CHO cell membranes expressing human GlyT1
Conditions: values given as bounds, read-out: radioligand binding K^iapp
Method: Radioligand binding to human GlyT1c transporter-expressing membranes was carried out as described in Mezler et al., Molecular Pharmacology 74:1705-1715, 2008.

Structure (SMILES)	pKi
CS(=O)(=O)NCCn1cc2c(n1)C(C1(c3ccc(Cl)cc3)CCC1)NCC2 (stereo not drawn) [Example 9.3, N-(2-(7-(1-(4-Chlorophenyl)cyclobutyl)-4,5,6,7-tetrahydro-2H-pyrazolo[3,4-c]pyridin-2-yl)ethyl)methanesulfonamide hydrochloride]	≥ 6.00
NCCn1cc2c(n1)C(C1(c3ccc(Cl)cc3)CCC1)NCC2 (stereo not drawn) [Example 6, 2-(7-(1-(4-Chlorophenyl)cyclobutyl)-4,5,6,7-tetrahydro-2H-pyrazolo[3,4-c]pyridin-2-yl)ethanamine dihydrochloride]	≤ 5.00
O=S(=O)(CCCF)NCc1ncc2c(n1)C(C1(c3ccc(Cl)cc3)CCC1)NCC2 (stereo not drawn) [Example 8.5, N-((8-(1-(4-Chlorophenyl)cyclobutyl)-5,6,7,8-tetrahydropyrido[3,4-d]pyrimidin-2-yl)methyl)-3-fluoropropane-1-sulfonamide hydrochloride]	≥ 6.00
Cn1cc(S(=O)(=O)NCCn2cc3c(n2)C(C2(c4ccc(Cl)cc4)CCC2)NCC3)cn1 (stereo not drawn) [Example 9.6, N-(2-(7-(1-(4-Chlorophenyl)cyclobutyl)-4,5,6,7-tetrahydro-2H-pyrazolo[3,4-c]pyridin-2-yl)-ethyl)-1-methyl-1H-pyrazole-4-sulfonamide hydrochloride]	≥ 6.00
O=S(=O)(NCCn1cc2c(n1)C(C1(c3ccc(Cl)cc3)CCC1)NCC2)c1ccccc1 (stereo not drawn) [Example 9.4, N-(2-(7-(1-(4-Chlorophenyl)cyclobutyl)-4,5,6,7-tetrahydro-2H-pyrazolo[3,4-c]pyridin-2-yl)ethyl)benzenesulfonamide hydrochloride]	≥ 6.00
CCCS(=O)(=O)NCCn1ncc2c1C(C1(c3ccc(Cl)cc3)CCC1)NCC2 (stereo not drawn) [Example 7.1, N-(2-(7-(1-(4-Chlorophenyl)cyclobutyl)-4,5,6,7-tetrahydro-1H-pyrazolo[3,4-c]pyridin-1-yl)ethyl)propane-1-sulfonamide hydrochloride]	≥ 6.00
CCCS(=O)(=O)NCCn1c2c(c3ccccc31)CCNC2C1(c2ccc(Cl)cc2)CCC1 (stereo not drawn) [Example 11, N-(2-{1-[1-(4-Chlorophenyl)cyclobutyl]-1,2,3,4-tetrahydro-9H-b-carbolin-9-yl}ethyl)propane-1-sulfonamide]	≥ 6.00
Cn1cc(S(=O)(=O)NCCn2ncc3c2C(C2(c4ccc(Cl)cc4)CCC2)NCC3)cn1 (stereo not drawn) [Example 7.2, N-(2-(7-(1-(4-Chlorophenyl)cyclobutyl)-4,5,6,7-tetrahydro-1H-pyrazolo[3,4-c]pyridin-1-yl)ethyl)-1-methyl-1H-pyrazole-4-sulfonamide hydrochloride]	≥ 5.00
O=S(=O)(CC1CC1)NCc1ncc2c(n1)C(C1(c3ccc(Cl)cc3)CCC1)NCC2 (stereo not drawn) [Example 8.2, N-((8-(1-(4-Chlorophenyl)cyclobutyl)-5,6,7,8-tetrahydropyrido[3,4-d]pyrimidin-2-yl)methyl)-1-cyclopropylmethanesulfonamide hydrochloride]	≥ 6.00
Cn1cc(S(=O)(=O)NCc2ncc3c(n2)C(C2(c4ccc(Cl)cc4)CCC2)NCC3)cn1 (stereo not drawn) [Example 8.3, N-((8-(1-(4-Chlorophenyl)cyclobutyl)-5,6,7,8-tetrahydropyrido[3,4-d]pyrimidin-2-yl)methyl)-1-methyl-1H-pyrazole-4-sulfonamide hydrochloride]	≥ 6.00
O=S(=O)(NCCn1cc2c(n1)C(C1(c3ccc(Cl)cc3)CCC1)NCC2)C1CCC1 (stereo not drawn) [Example 9.9, N-(2-(7-(1-(4-Chlorophenyl)cyclobutyl)-4,5,6,7-tetrahydro-2H-pyrazolo[3,4-c]pyridin-2-yl)-ethyl)cyclobutanesulfonamide hydrochloride]	≥ 6.00
O=S(=O)(CCCF)NCCn1cc2c(n1)C(C1(c3ccc(Cl)cc3)CCC1)NCC2 (stereo not drawn) [Example 9.8, N-(2-(7-(1-(4-Chlorophenyl)cyclobutyl)-4,5,6,7-tetrahydro-2H-pyrazolo[3,4-c]pyridin-2-yl)ethyl)-3-fluoropropane-1-sulfonamide hydrochloride]	≥ 6.00
CC(C)CS(=O)(=O)NCCn1cc2c(n1)C(C1(c3ccc(Cl)cc3)CCC1)NCC2 (stereo not drawn) [Example 9.11, N-(2-(7-(1-(4-chlorophenyl)cyclobutyl)-4,5,6,7-tetrahydro-2H-pyrazolo[3,4-c]pyridin-2-yl)ethyl)-2-methylpropane-1-sulfonamide hydrochloride]	≥ 6.00
Cn1cnc(S(=O)(=O)NCc2ncc3c(n2)C(C2(c4ccc(Cl)cc4)CCC2)NCC3)c1 (stereo not drawn) [Example 8.4, N-((8-(1-(4-Chlorophenyl)cyclobutyl)-5,6,7,8-tetrahydropyrido[3,4-d]pyrimidin-2-yl)methyl)-1-methyl-1H-imidazole-4-sulfonamide hydrochloride]	≥ 6.00
CCCS(=O)(=O)NCc1ncc2c(n1)C(C1(c3ccc(Cl)cc3)CCC1)NCC2 (stereo not drawn) [Example 8.1, N-((8-(1-(4-Chlorophenyl)cyclobutyl)-5,6,7,8-tetrahydropyrido[3,4-d]pyrimidin-2-yl)methyl)propane-1-sulfonamide hydrochloride]	≥ 6.00

The next lines start with the values.

pKi	Structure (SMILES)
≥ 6.00	Cn1cnc(S(=O)(=O)NCCn2cc3c(n2)C(C2(c4ccc(Cl)cc4)CCC2)NCC3)c1 (stereo not drawn) [Example 9.7, N-(2-(7-(1-(4-Chlorophenyl)cyclobutyl)-4,5,6,7-tetrahydro-2H-pyrazolo[3,4-c]pyridin-2-yl)ethyl)-1-methyl-1H-imidazole-4-sulfonamide hydrochloride]
≥ 6.00	Cn1cnc(S(=O)(=O)NCCn2ncc3c2C(C2(c4ccc(Cl)cc4)CCC2)NCC3)c1 (stereo not drawn) [Example 7.4, N-(2-(7-(1-(4-Chlorophenyl)cyclobutyl)-4,5,6,7-tetrahydro-1H-pyrazolo[3,4-c]pyridin-1-yl)ethyl)-1-methyl-1H-imidazole-4-sulfonamide hydrochloride]
≥ 6.00	O=S(=O)(CC1CC1)NCCn1cc2c(n1)C(C1(c3ccc(Cl)cc3)CCC1)NCC2 (stereo not drawn) [Example 9.10, N-(2-(7-(1-(4-Chlorophenyl)cyclobutyl)-4,5,6,7-tetrahydro-2H-pyrazolo[3,4-c]pyridin-2-yl)-ethyl)-1-cyclopropylmethanesulfonamide hydrochloride]
≥ 5.00	CCS(=O)(=O)NCCn1cc2c(n1)C(C1(c3ccc(Cl)cc3)CCC1)NCC2 (stereo not drawn) [Example 9.2, N-(2-(7-(1-(4-Chlorophenyl)cyclobutyl)-4,5,6,7-tetrahydro-2H-pyrazolo[3,4-c]pyridin-2-yl)ethyl)ethanesulfonamide hydrochloride]
≥ 6.00	O=S(=O)(NCCn1cc2c(n1)C(C1(c3ccc(Cl)cc3)CCC1)NCC2)c1cccnc1 (stereo not drawn) [Example 9.12, N-(2-(7-(1-(4-Chlorophenyl)cyclobutyl)-4,5,6,7-tetrahydro-2H-pyrazolo[3,4-c]pyridin-2-yl)ethyl)pyridine-3-sulfonamide dihydrochloride]
≥ 6.00	O=S(=O)(CCCF)NCCn1ncc2c1C(C1(c3ccc(Cl)cc3)CCC1)NCC2 (stereo not drawn) [Example 7.3, N-(2-(7-(1-(4-Chlorophenyl)cyclobutyl)-4,5,6,7-tetrahydro-1H-pyrazolo[3,4-c]pyridin-1-yl)ethyl)-3-fluoropropane-1-sulfonamide hydrochloride]
≥ 6.00	CCCS(=O)(=O)N(C)CCn1cc2c(n1)C(C1(c3ccc(Cl)cc3)CCC1)NCC2 (stereo not drawn) [Example 10, N-(2-(7-(1-(4-chlorophenyl)cyclobutyl)-4,5,6,7-tetrahydro-2H-pyrazolo[3,4-c]pyridin-2-yl)ethyl)-N-methylpropane-1-sulfonamide hydrochloride]
≥ 6.00	CCCCS(=O)(=O)NCCn1cc2c(n1)C(C1(c3ccc(Cl)cc3)CCC1)NCC2 (stereo not drawn) [Example 9.5, N-(2-(7-(1-(4-Chlorophenyl)cyclobutyl)-4,5,6,7-tetrahydro-2H-pyrazolo[3,4-c]pyridin-2-yl)-ethyl)butane-1-sulfonamide hydrochloride]
≥ 6.00	CCCS(=O)(=O)NCCn1cc2c(n1)C(C1(c3ccc(Cl)cc3)CCC1)NCC2 (stereo not drawn) [Example 9.1, N-(2-(7-(1-(4-Chlorophenyl)cyclobutyl)-4,5,6,7-tetrahydro-2H-pyrazolo[3,4-c]pyridin-2-yl)ethyl)propane-1-sulfonamide hydrochloride]
